The results in this text go back to patent US11566007B2, “Ras inhibitors” (Revolution Medicines, Inc., priority 2019, dated 2023).

Read-outs that look alike come from different tables or passages of the source.

Test [1] concerns NCI-H358 cells (K-Ras G12C). As to the kind of experiment: Potency assay: pERK in NCI-H358 cells. Particulars: Homo sapiens. Type of test: cell-based, human. The method in brief: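 Compounds are dosed as ten 3-fold dilutions from a 10 mM DMSO stock, in duplicate, and left on cells for 4 h at 37 °C, 5% CO2. Phospho-ERK1/2 is then quantified by AlphaLISA SureFire Ultra or In-Cell Western, and IC50 is derived from a 4-parameter sigmoid against log concentration.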

The target in test [2] is K-Ras G12C (Homo sapiens (Human), UniProt P01116+P62937, G12C). As to the kind of experiment: Ras-Raf (BRAF RBD) disruption / FRET / MOA assay, KRAS G12C. It is filed as biochemical. The method in brief:
(§1)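 Ternary complex formation (Ras–compound–cyclophilin A) displacing BRAF RBD, monitored by TR-FRET. Three hours at 25° C with compound (top 30 μM final), then 1.5 h with the labelled antibodies. Lower ratio than DMSO indicates disruption; IC50 reported.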

The target of test [3] is KRAS Q61H (Homo sapiens (Human), UniProt P01116+P62937, Q61H). Kind of test: Ras-Raf (BRAF RBD) disruption / FRET / MOA assay, KRAS Q61H. It is filed as biochemical. The note with it: Ras-Raf disruption/FRET/MOA assay; class symbols; read-out: KRAS Q61H FRET data IC50. The method in brief: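 Compounds were tested as a 10-point 3-fold dilution series from 30 μM final for their ability to drive ternary complex formation between nucleotide-loaded Ras and cyclophilin A, displacing the BRAF RBD. After 3 h at 25° C., anti-His Eu-W1024 (10 nM) and anti-GST allophycocyanin (50 nM) were added for 1.5 h. A TR-FRET ratio decrease versus DMSO gave IC50.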

For test [4], the target named is NRAS G12C (Homo sapiens (Human), UniProt P01111+P62937, G12C). As to the kind of experiment: Ras-Raf (BRAF RBD) disruption / FRET / MOA assay, NRAS G12C. It is filed as biochemical. The method in brief:
as §1

The mark [5] stands for this setting: NCI-H358, H358 KRAS G12C, read-out: pERK EC50.
Where [6] appears, read: KRAS G12C, Ras-Raf disruption/FRET/MOA assay, read-out: IC50* KRAS G12C FRET data.
The mark [7] stands for this setting: read-out: IC50* NRAS G12C FRET data.

Broadly, the EC50 is the concentration giving half of the maximal effect. The term IC50 denotes the point on the concentration scale where inhibition reaches its midpoint.

NRAS G12C, sequence (P01111 whole entry G12C): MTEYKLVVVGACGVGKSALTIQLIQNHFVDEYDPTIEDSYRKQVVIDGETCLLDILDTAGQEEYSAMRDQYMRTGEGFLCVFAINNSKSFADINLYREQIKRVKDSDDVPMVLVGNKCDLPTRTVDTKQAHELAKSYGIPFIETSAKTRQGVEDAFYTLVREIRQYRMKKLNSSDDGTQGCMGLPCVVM
NRAS G12C, sequence (P62937 whole entry): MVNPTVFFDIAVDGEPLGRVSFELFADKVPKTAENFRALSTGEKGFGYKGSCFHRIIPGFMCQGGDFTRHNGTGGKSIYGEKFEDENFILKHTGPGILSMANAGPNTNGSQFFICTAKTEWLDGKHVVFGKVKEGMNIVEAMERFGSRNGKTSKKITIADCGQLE
K-Ras G12C, sequence (P01116-2 other isoform, or with tags, fused parts or gaps G12C): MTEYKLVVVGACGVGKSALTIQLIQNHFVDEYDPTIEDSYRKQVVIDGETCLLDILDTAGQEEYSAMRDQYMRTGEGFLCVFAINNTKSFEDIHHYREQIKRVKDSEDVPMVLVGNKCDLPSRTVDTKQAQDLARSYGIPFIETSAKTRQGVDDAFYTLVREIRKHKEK
K-Ras G12C, sequence (P62937 whole entry): as the sequence (P62937 whole entry) above
KRAS Q61H, sequence (P01116-2 other isoform, or with tags, fused parts or gaps Q61H): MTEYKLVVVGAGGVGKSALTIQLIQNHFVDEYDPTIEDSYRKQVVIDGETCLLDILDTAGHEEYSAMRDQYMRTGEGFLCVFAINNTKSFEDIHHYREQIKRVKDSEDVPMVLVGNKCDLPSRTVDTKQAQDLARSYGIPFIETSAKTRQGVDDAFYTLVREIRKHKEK
KRAS Q61H, sequence (P62937 whole entry): as the sequence (P62937 whole entry) above

With `C=CC(=O)N1CC[C@H](C(=O)N(C)[C@H](C(=O)N[C@H]2CN3CCC=C(C3)c3ccc4c(c3)c(c(-c3cccnc3[C@H](C)OC)n4CC)CC(C)(C)COC(=O)[C@@H]3CCCN(N3)C2=O)C(C)C)C1` (atropisomer, axis not shown) [Example A716, (3S)-1-acryloyl-N-((2S)-1-(((6^3S,4S)-1^1-ethyl-1^2-(2-((S)-1-methoxyethyl)pyridin-3-yl)-10,10-dimethyl-5,7-dioxo-2^1,2^2,2^3,2^6,6^1,6^2,6^3,6^4,6^5,6^6-decahydro-1^1H-8-oxa-1(5,3)-indola-6(1,3)-pyridazina-2(5,1)-pyridinacycloundecaphane-4-yl)amino)-3-methyl-1-oxobutan-2-yl)-N-methylpyrrolidine-3-carboxamide], the EC50 in test [1] (setting [5]) is < 5000 nM. The IC50 in test [2] (setting [6]) was in the range of 100 to 1000 nM; in test [3] it was 1000 to 10000 nM; in test [4] (setting [7]), 100 to 1000 nM.
On to `CCn1c(-c2cccnc2[C@H](C)OC)c2c3cc(ccc31)-c1nc(nn1C)C[C@H](NC(=O)[C@@H](COC1CN(C(=O)C#CC(C)(C)N(C)C)C1)C(C)C)C(=O)N1CCC[C@H](N1)C(=O)OCC(C)(C)C2` (atropisomer, axis not shown) [Example A720, (2R)-2-(((1-(4-(dimethylamino)-4-methylpent-2-ynoyl)azetidin-3-yl)oxy)methyl)-N-((6^3S,4S,Z)-1^1-ethyl-1^2-(2-((S)-1-methoxyethyl)pyridin-3-yl)-2^1,10,10-trimethyl-5,7-dioxo-6^1,6^2,6^3,6^4,6^5,6^6-hexahydro-1^1H,2^1H-8-oxa-1(5,3)-indola-6(1,3)-pyridazina-2(5,3)-triazolacycloundecaphane-4-yl)-3-methylbutanamide], for which, in test [1] (setting [5]), the EC50 is < 5000 nM. Moreover, the IC50 in test [2] (setting [6]) lay within 10 to 100 nM; in test [3] it was 1000 to 10000 nM; in test [4] (setting [7]), 10 to 100 nM.
`C=CC(=O)N1CCC(F)(C(=O)N(C)[C@H](C(=O)N[C@H]2C[C@H]3CN(CCO3)c3ccc4c(c3)c(c(-c3cccnc3[C@H](C)OC)n4CC)CC(C)(C)COC(=O)[C@@H]3CCCN(N3)C2=O)C(C)C)CC1` (atropisomer, axis not shown) [Example A722, 1-acryloyl-N-((2S)-1-(((6^3S,4S)-1^1-ethyl-1^2-(2-((S)-1-methoxyethyl)pyridin-3-yl)-10,10-dimethyl-5,7-dioxo-6^1,6^2,6^3,6^4,6^5,6^6-hexahydro-1^1H-8-oxa-2(4,2)-morpholina-1(5,3)-indola-6(1,3)-pyridazinacycloundecaphane-4-yl)amino)-3-methyl-1-oxobutan-2-yl)-4-fluoro-N-methylpiperidine-4-carboxamide]: the EC50 in test [1] (setting [5]) is < 5000 nM. For the same compound, the IC50 in test [2] (setting [6]) lay in the range of 10 to 100 nM; in test [3] it was 1000 to 10000 nM; in test [4] (setting [7]), 10 to 100 nM.
On to `C=CC(=O)N1CC(OC[C@H](C(=O)N[C@H]2C[C@H]3CN(CCO3)c3ccc4c(c3)c(c(-c3cccnc3[C@H](C)OC)n4CC(F)(F)F)CC(C)(C)COC(=O)[C@@H]3CCCN(N3)C2=O)C(C)C)C1` (atropisomer, axis not shown) [Example A723], for which the EC50 in test [1] (setting [5]) was < 5000 nM. The IC50 is 100 to 1000 nM in test [2] (setting [6]), 1000 to 10000 nM in test [3] and 100 to 1000 nM in test [4] (setting [7]).
On to `CCn1c(-c2cccnc2[C@H](C)OC)c2c3cc(ccc31)-c1csc(n1)C[C@H](NC(=O)[C@H](C(C)C)N(C)C(=O)N(C)C1CN(C(=O)/C=C/[C@H]3CCCN3C)C1)C(=O)N1CCC[C@H](N1)C(=O)OCC(C)(C)C2` (atropisomer, axis not shown) [Example A729], for which the EC50 in test [1] (setting [5]) is < 5000 nM. Also, the IC50 in test [2] (setting [6]), in test [3] and in test [4] (setting [7]) was 100 to 1000 nM each time.
As for `CCn1c(-c2cccnc2[C@H](C)OC)c2c3cc(ccc31)-c1csc(n1)C[C@H](NC(=O)[C@H](C(C)C)N(C)C(=O)N(C)C1CN(C(=O)/C=C/[C@@H]3CCCN3C)C1)C(=O)N1CCC[C@H](N1)C(=O)OCC(C)(C)C2` (atropisomer, axis not shown) [Example A730], the EC50 in test [1] (setting [5]) is < 5000 nM. Moreover, the IC50 in test [2] (setting [6]) was in the range of 10 to 100 nM; in test [3], 100 to 1000 nM; in test [4] (setting [7]), 10 to 100 nM.
In the case of `CC#CC(=O)N1CC(N(C)C(=O)N(C)[C@H](C(=O)N[C@H]2Cc3nc(cs3)-c3ccc4c(c3)c(c(-c3cccnc3[C@H](C)OC)n4CC)CC(C)(C)COC(=O)[C@@H]3CCCN(N3)C2=O)C(C)C)C1` (atropisomer, axis not shown) [Example A731], in test [1] (setting [5]), the EC50 is < 5000 nM. For the same compound, the IC50 in test [2] (setting [6]), in test [3] and in test [4] (setting [7]) was 100 to 1000 nM in each case.
Take `C=C(F)C(=O)N1CC(N(C)C(=O)N(C)[C@H](C(=O)N[C@H]2Cc3nc(cs3)-c3ccc4c(c3)c(c(-c3cccnc3[C@H](C)OC)n4CC)CC(C)(C)COC(=O)[C@@H]3CCCN(N3)C2=O)C(C)C)C1` (atropisomer, axis not shown) [Example A732]: the EC50 in test [1] (setting [5]) is < 5000 nM. Further, the IC50 in test [2] (setting [6]), in test [3] and in test [4] (setting [7]) was 100 to 1000 nM each time.
In the case of `C=CC(=O)N1CCN(C(=O)N(C)[C@H](C(=O)N[C@H]2Cc3nc(cs3)-c3ccc4c(c3)c(c(-c3cccnc3[C@H](C)OC)n4CC)CC(C)(C)COC(=O)[C@@H]3CCCN(N3)C2=O)C(C)C)[C@H]2C[C@H]21` (atropisomer, axis not shown) [Example A737], the EC50 in test [1] (setting [5]) is < 5000 nM. Moreover, the IC50 in test [2] (setting [6]), in test [3] and in test [4] (setting [7]) was 10 to 100 nM in each case.
`C=CS(=O)(=O)N1CCC(C(=O)N(C)[C@H](C(=O)N[C@H]2Cc3nc(cs3)-c3ccc4c(c3)c(c(-c3cncnc3)n4CC)CC(C)(C)COC(=O)[C@@H]3CCCN(N3)C2=O)C(C)C)C1` (single isomer, unassigned) [Example A170]: in test [1] (setting [5]), the EC50 is < 5000 nM. Moreover, the IC50 was 1000 to 10000 nM in test [2] (setting [6]), > 10000 nM in test [3] and 1000 to 10000 nM in test [4] (setting [7]).
With `C=CS(=O)(=O)N1CCC(C(=O)N(C)[C@H](C(=O)N[C@H]2Cc3cccc(c3)-c3ccc4c(c3)c(c(-c3cncnc3)n4CC)CC(C)(C)COC(=O)[C@@H]3CCCN(N3)C2=O)C(C)C)C1` (single isomer, unassigned) [Example A171], the EC50 in test [1] (setting [5]) was < 5000 nM. The IC50 is 1000 to 10000 nM in test [2] (setting [6]), > 10000 nM in test [3] and 1000 to 10000 nM in test [4] (setting [7]).
With `C=CC(=O)N1CC[C@H](C(=O)N(C)[C@H](C(=O)N[C@H]2Cc3cc(ccn3)-c3ccc4c(c3)c(c(-c3cccnc3COC)n4CC)CC(C)(C)COC(=O)[C@@H]3CCCN(N3)C2=O)C(C)C)C1` [Example A136], in test [1] (setting [5]), the concentration for a half-maximal effect (EC50) was < 5000 nM. In addition, the IC50 in test [2] (setting [6]), in test [3] and in test [4] (setting [7]) was 1000 to 10000 nM in each case.
`C=CC(=O)N1CC[C@H](C(=O)N(C)[C@H](C(=O)N[C@H]2Cc3cc(O)cc(c3)-c3ccc4c(c3)c(c(-c3cncs3)n4CC)CC(C)(C)COC(=O)[C@@H]3CCCN(N3)C2=O)C(C)C)C1` [Example A143]: the EC50 in test [1] (setting [5]) was < 5000 nM. Also, the IC50 was 100 to 1000 nM in test [2] (setting [6]), 1000 to 10000 nM in test [3] and 100 to 1000 nM in test [4] (setting [7]).
Regarding `C=CC(=O)N1CC[C@H](C(=O)N(C)[C@H](C(=O)N[C@H]2Cc3cc(O)cc(c3)-c3ccc4c(c3)c(c(-c3cccc(=O)n3C(C)C)n4CC)CC(C)(C)COC(=O)[C@@H]3CCCN(N3)C2=O)C(C)C)C1` [Example A151], the EC50 in test [1] (setting [5]) was < 5000 nM. In addition, the IC50 in test [2] (setting [6]) is 100 to 1000 nM; in test [3] it was 1000 to 10000 nM; in test [4] (setting [7]) it was 100 to 1000 nM.
In the case of `C=CC(=O)N1CC[C@H](C(=O)N(C)[C@H](C(=O)N[C@H]2Cc3cc(O)cc(c3)-c3ccc4c(c3)c(c(-c3cccnc3)n4[C@H](C)C#N)CC(C)(C)COC(=O)[C@@H]3CCCN(N3)C2=O)C(C)C)C1` [Example A193], the half-maximal effective concentration (EC50) in test [1] (NCI-H358, read-out: pERK EC50) was < 5000 nM. Besides, the IC50 was 10 to 100 nM in test [2] (setting [6]); 295 nM in test [2] (with Cyclophilin A, BRAF RBD, read-out: FRET (K-Ras G12C) IC50); 100 to 1000 nM in test [3]; 100 to 1000 nM in test [4] (setting [7]).
For `C=CC(=O)N1CC[C@H](C(=O)N(C)[C@H](C(=O)N[C@H]2Cc3cc(O)cc(c3)-c3ccc4c(c3)c(c(-c3c(C)cccc3C)n4CC)CC(C)(C)COC(=O)[C@@H]3CCCN(N3)C2=O)C(C)C)C1` [Example A226], the EC50 in test [1] (setting [5]) is < 5000 nM. In addition, the IC50 in test [2] (setting [6]) was 100 to 1000 nM; in test [3], 1000 to 10000 nM; in test [4] (setting [7]), 100 to 1000 nM.
`C=CC(=O)N1CC[C@H](C(=O)N(C)[C@H](C(=O)N[C@H]2Cc3cc(O)cc(c3)-c3ccc4c(c3)c(c(-c3cccc5c3COC5)n4CC)CC(C)(C)COC(=O)[C@@H]3CCCN(N3)C2=O)C(C)C)C1` [Example A227]: the EC50 in test [1] (setting [5]) is < 5000 nM. Besides, the IC50 in test [2] (setting [6]) lay in the range of 100 to 1000 nM; in test [3] it was 1000 to 10000 nM; in test [4] (setting [7]), 100 to 1000 nM.
As to `C=CC(=O)N1CC[C@H](C(=O)N(C)[C@H](C(=O)N[C@H]2Cc3cc(O)cc(c3)-c3ccc4c(c3)c(c(-c3ncn(C)c3[C@H](C)OC)n4CC)CC(C)(C)COC(=O)[C@@H]3CCCN(N3)C2=O)C(C)C)C1` [Example A301], in test [1] (setting [5]), the EC50 was < 5000 nM. Also, the IC50 in test [2] (IC50* KRAS G12C FRET data, KRAS G12C, Ras-Raf disruption/FRET/MOA assay) lay within 100 to 1000 nM; in test [3], 1000 to 10000 nM; in test [4] (IC50* NRAS G12C FRET data), 100 to 1000 nM.
